From US20140335038A1, “METHOD OF STRENGTHENING HAIR FIBRES” (priority 2011, published 2014)

Experiment: DSC denaturation peak temperature of treated dark brown hair
Parameters: species or system Human
Settings: Example 4, 5 treatments, pH 5, 32° C.
Method: DSC measures the denaturation temperature of the α-helical proteins in the microfibrils of the hair fibre. This temperature is influenced by the cross-link density of the surrounding matrix proteins (Wortmann et al., J. Cosmet. Sci., 53, 219-228 (2002)). A higher denaturation peak temperature indicates greater integrity of the fibre. Damage repair was assessed using DSC. A Mettler Toledo DSC1 analyser was used. The hair was shaved, using clippers, into 1-2 mm lengths. Approximately 5 mg of sample was weighed into a pressure resistant (20 bar), stainless steel, large volume pan (120 μL capacity). 50 μL of water was added and the pan was sealed. The samples were then mixed using a rotary mixer and left overnight to allow the water to equilibrate throughout the sample. […] The helix transition temperature was measured. Each sample was measured three times. Selected 2'' hair switches were bleached once using […] […] 4200 μL Britton-Robinson buffer (62.5 mM pH 5; final concentration 50 mM) 600 μl hydrogen peroxide 3% (SBP- or HRP-treated sample and (+)-catechin/H2O2 treated sample) or 600 μL milliQ water (laccase-treated sample and (+)-catechin treated sample) 600 μL (+)-catechin, 100 mg/mL stock in DMSO The reagents listed above were combined in 15 mL Falcon centrifuge tubes. […] Samples were measured three times.

With Oc1cc(O)c2c(c1)O[C@H](c1ccc(O)c(O)c1)[C@@H](O)C2 [(+)-Catechin, (+)-catechin] the Denaturation peak temperature (dark brown hair bleached x1) was 153.38 +/− 0.43 °C and the Denaturation peak temperature (unbleached dark brown hair) was 151.16 +/− 0.49 °C.
